Assay results: US7868020B2, “Quinolynylmethylimidizoles as therapeutic agents” (Allergan, Inc., priority 2007, dated 2011)

Tests used:
[1] = in vitro assay (not specified) of separated enantiomers; settings: enantiomers separated by chiral HPLC
Excerpt: Compound (6) was separated by chiral HPLC: […]® OD with 85% hexane and 15% ethanol at rt. The (+)-7-(5-methyl-1H-imidazol-4-ylmethyl)-5,6,7,8-tetrahydro-quinoline (8) corresponding to the second eluting peak was active in an in vitro assay.

Alpha 1A = molecular target: T1, Alpha 1A (Homo sapiens, UniProt P35348); assay: RSAT assay, Alpha 1A receptor; type: cell-based; settings: for EC50: RSAT, transfected NIH-3T3 cells; for Alpha 1A (IA) intrinsic activity: ratio of maximal effect of drug to maximal effect of standard full agonist
T1 construct: expressed in transfected cells; host or cells: NIH-3T3
T1 sequence (P35348 1-466): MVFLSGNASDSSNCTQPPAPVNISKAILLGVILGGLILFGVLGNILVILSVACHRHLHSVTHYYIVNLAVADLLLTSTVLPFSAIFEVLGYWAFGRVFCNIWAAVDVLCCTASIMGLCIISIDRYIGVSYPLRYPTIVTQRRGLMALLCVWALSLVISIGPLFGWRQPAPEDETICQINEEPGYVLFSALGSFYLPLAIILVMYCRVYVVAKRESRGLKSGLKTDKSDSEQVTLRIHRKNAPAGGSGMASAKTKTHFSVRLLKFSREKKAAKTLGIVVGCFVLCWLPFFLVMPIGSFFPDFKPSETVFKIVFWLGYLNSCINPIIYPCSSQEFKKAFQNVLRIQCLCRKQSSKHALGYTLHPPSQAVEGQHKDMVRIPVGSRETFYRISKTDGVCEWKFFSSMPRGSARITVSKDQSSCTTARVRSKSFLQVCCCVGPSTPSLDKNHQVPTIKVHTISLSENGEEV
Protocol: (§1) The RSAT assay measures a receptor-mediated loss of contact inhibition that results in selective proliferation of receptor-containing cells in a mixed population of confluent cells. The increase in cell number is assessed with an appropriate transfected marker gene such as […]-galactosidase, the activity of which can be easily measured in a 96-well format. Receptors that activate the G protein, Gq, elicit this response. Alpha2 receptors, which normally couple to Gi, activate the RSAT response when coexpressed with a hybrid Gq protein that has a Gi receptor recognition domain, called Gq/i5.
(§2) NIH-3T3 cells are plated at a density of 2×10^6 cells in 15 cm dishes and maintained in Dulbecco's modified Eagle's medium supplemented with 10% calf serum. One day later, cells are cotransfected by calcium phosphate precipitation with mammalian expression plasmids encoding p-SV-β-galactosidase (5-10 μg), receptor (1-2 μg) and G protein (1-2 μg). 40 μg salmon sperm DNA may also be included in the transfection mixture. Fresh media is added on the following day and 1-2 days later, cells are harvested and frozen in 50 assay aliquots. Cells are thawed and 100 μl added to 100 μl aliquots of various concentrations of drugs in triplicate in 96-well dishes. Incubations continue 72-96 hr at 37° C. After washing with phosphate-buffered saline, β-galactosidase enzyme activity is determined by adding 200 μl of the chromogenic substrate (consisting of 3.5 mM o-nitrophenyl-β-D-galactopyranoside and 0.5% nonidet P-40 in phosphate buffered saline), incubating overnight at 30° C. and measuring optical density at 420 nm. The absorbance is a measure of enzyme activity, which depends on cell number and reflects a receptor-mediated cell proliferation. The efficacy or intrinsic activity is calculated as a ratio of the maximal effect of the drug to the maximal effect of a standard full agonist for each receptor subtype. Brimonidine, also called UK14304, the chemical structure of which is shown below, is used as the standard agonist for the alpha2A, alpha2B and alpha2C receptors. The EC50 is the concentration at which the drug effect is half of its maximal effect.
(§3) The results of the RSAT assay with several exemplary compounds of the invention are disclosed in Table 1 above together with the chemical formulas of these exemplary compounds. EC50 values are nanomolar. NA stands for “not active” at concentrations less than 10 micromolar. IA stands for “intrinsic activity.”

Alpha 2C = molecular target: T2, Alpha 2C (Homo sapiens, UniProt P18825); assay: RSAT assay, Alpha 2C receptor; type: cell-based; settings: for EC50: RSAT, transfected NIH-3T3 cells, coexpressed Gq/i5; for Alpha 2C (IA) intrinsic activity: ratio of maximal effect to that of standard full agonist brimonidine
T2 construct: expressed in transfected cells; host or cells: NIH-3T3
T2 sequence (P18825 1-462): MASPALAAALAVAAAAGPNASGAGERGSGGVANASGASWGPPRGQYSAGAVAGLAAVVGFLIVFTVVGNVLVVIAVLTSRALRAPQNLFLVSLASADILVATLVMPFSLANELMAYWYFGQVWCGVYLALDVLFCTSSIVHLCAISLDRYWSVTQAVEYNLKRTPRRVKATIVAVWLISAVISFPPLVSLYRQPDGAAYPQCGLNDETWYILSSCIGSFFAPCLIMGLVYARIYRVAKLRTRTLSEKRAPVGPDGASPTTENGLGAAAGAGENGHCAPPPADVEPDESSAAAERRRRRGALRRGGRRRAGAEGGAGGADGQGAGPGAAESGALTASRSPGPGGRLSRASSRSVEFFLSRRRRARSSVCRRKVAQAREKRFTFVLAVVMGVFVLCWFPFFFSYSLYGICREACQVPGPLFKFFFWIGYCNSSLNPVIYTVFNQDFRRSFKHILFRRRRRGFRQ
Protocol: as §1, §2, §3

Alpha 2A = molecular target: T3, Alpha 2A (Homo sapiens, UniProt P08913); assay: RSAT assay, Alpha 2A receptor; type: cell-based; settings: transfected NIH-3T3 cells, coexpressed Gq/i5
T3 construct: expressed in transfected cells; host or cells: NIH-3T3
T3 sequence (P08913 1-465): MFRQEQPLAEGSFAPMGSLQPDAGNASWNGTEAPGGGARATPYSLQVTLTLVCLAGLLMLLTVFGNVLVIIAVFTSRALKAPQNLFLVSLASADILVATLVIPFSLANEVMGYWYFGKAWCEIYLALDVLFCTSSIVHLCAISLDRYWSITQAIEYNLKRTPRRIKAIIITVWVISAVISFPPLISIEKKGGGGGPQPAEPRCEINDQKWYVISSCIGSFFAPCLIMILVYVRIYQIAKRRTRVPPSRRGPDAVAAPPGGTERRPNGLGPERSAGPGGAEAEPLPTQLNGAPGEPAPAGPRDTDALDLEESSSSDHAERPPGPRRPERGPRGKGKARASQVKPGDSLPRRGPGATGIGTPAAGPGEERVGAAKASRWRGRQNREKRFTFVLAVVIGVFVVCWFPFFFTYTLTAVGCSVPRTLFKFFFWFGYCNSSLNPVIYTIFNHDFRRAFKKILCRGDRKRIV
Protocol: as §1
NIH-3T3 cells are plated at a density of 2×10^6 cells in 15 cm dishes and maintained in Dulbecco's modified Eagle's medium supplemented with 10% calf serum. […] After washing with phosphate-buffered saline, β-galactosidase enzyme activity is determined by adding 200 μl of the chromogenic substrate (consisting of 3.5 mM o-nitrophenyl-β-D-galactopyranoside and 0.5% nonidet P-40 in phosphate buffered saline), incubating overnight at 30° C. and measuring optical density at 420 nm. The absorbance is a measure of enzyme activity, which depends on cell number and reflects a receptor-mediated cell proliferation. The efficacy or intrinsic activity is calculated as a ratio of the maximal effect of the drug to the maximal effect of a standard full agonist for each receptor subtype. […]

Alpha 2B = molecular target: T4, Alpha 2B (Homo sapiens, UniProt P18089); assay: RSAT assay, Alpha 2B receptor; type: cell-based; settings: for EC50: RSAT, transfected NIH-3T3 cells, coexpressed Gq/i5; for Alpha 2B (IA) intrinsic activity: ratio of maximal effect to that of standard full agonist brimonidine
T4 construct: expressed in transfected cells; host or cells: NIH-3T3
T4 sequence (P18089 1-450): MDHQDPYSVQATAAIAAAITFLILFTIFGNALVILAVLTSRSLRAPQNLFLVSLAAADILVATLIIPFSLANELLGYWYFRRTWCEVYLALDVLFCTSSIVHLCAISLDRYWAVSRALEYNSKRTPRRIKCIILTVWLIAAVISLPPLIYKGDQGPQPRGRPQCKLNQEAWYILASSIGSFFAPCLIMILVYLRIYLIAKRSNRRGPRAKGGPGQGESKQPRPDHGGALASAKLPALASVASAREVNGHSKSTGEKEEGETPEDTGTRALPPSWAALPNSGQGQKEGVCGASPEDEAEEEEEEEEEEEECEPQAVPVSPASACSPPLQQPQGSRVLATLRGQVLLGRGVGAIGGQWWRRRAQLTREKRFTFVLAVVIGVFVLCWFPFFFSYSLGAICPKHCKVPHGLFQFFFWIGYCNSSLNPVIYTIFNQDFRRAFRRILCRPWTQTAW
Protocol: as §1, §2, §3

EC50 (Alpha 1A) [nM] | Alpha 1A (IA) intrinsic activity (Alpha 1A) | EC50 (Alpha 2C) [nM] | Alpha 2C (IA) intrinsic activity (Alpha 2C) | EC50 (Alpha 2A) [nM] | EC50 (Alpha 2B) [nM] | Alpha 2B (IA) intrinsic activity (Alpha 2B) | SMILES | activity in an in vitro assay [1]
– | – | – | – | – | – | – | Cc1[nH]cnc1CC1CCc2cccnc2C1 (single isomer, unassigned; (+)) [Compound 8, (+)-7-(5-methyl-1H-imidazol-4-ylmethyl)-5,6,7,8-tetrahydro-quinoline] | active
– | – | – | – | – | – | – | Cc1[nH]cnc1CC1CCc2cccnc2C1 (single isomer, unassigned; (-)) [Compound 7, (−)-7-(5-methyl-1H-imidazol-4-ylmethyl)-5,6,7,8-tetrahydro-quinoline] | inactive
3340 | 0.66 | 207 | 0.63 | > 10000 | 57 | 0.32 | Cc1[nH]cnc1CC1CCc2cccnc2C1 (stereo not shown) [drawing 15] | –
876 | 0.66 | 366 | 0.47 | > 10000 | 37 | 0.7 | Cc1[nH]cnc1CC1CCc2cccnc2C1 (stereo not shown) [drawing 16] | –
